The subject of the test is Estradiol E2. The test is described as follows: Estradiol E2 level in blood (serum CLIA) after repeated sc PEP-1. The test is classed as in vivo, SD rats. The protocol:
PEP-1 (peptide of SEQ ID NO: 1), lyophilized white powder, obtained according to the method mentioned in example 1 was dissolved in 0.9% of saline, considering the correction factor of PEP-1 (purity: 94.13%, content: 92.36%, correction factor: 1.15). 50 mg/mL stock solution was further diluted into 20 mg/mL, 2 mg/mL, and 1 mg/mL with 0.9% saline, and stored at 4° C. for a week until the use.
The purpose of this example is to confirm the change of sexual hormones in blood from SD rats with 7 days repeated daily administration of SEQ ID NO: 1 peptide, PEP-1. This experiment followed the Ethics Regulation of Animal Test by KAMSI Inc. (Korea Animal Medical Science Institute). In addition, this experiment, Non-GLP experiment, referred to the MFDS (Ministry of Food and Drug Safety) notification; Agent 2013-40 (5th April 2013), Principles of Good Laboratory Practice (1997).
SPF Rats (Crlj:CD(SD)) were purchased from ORIENTBio Inc. (Mokdong-ri, Buk-myeon, Gapyeong-gun, Gyeonggi-do, Republic of Korea). 75 male (6.5 weeks old and 190˜210 g) and 75 female (6.5 weeks old and 160˜180 g) rats were monitored for 4 days, and 64 of male and female rats (each) were selected for the experiment. Raising condition is as follows; 23±3° C. of temperature, […] of relative humidity, 10˜20 times/hr of number of air changes, 12 hours (8 a.m.˜8 p.m.) of lighting with 150˜300 Lux of intensity.
64 male and female […] (mentioned above) were divided into 8 groups. Administration regimen, for example, drugs, routes, dosages, and volumes were as follows:
The detailed administration regimen is as follows; once a day, twice a day and twice a week in each experimental group. Injection initiated at 10 a.m. every day, and each rat was injected at one minute intervals. Rats in Group 9, 10, 13 and 14 were injected twice a week. Administration of high dose test agent preceded that of low dose. The volume of injection was calculated using recently measured weight of rats, and it was 5 mL/kg. Subcutaneous injection was performed as follows; assistant tilted the back of rat upward, and experimenter sterilized the back of rat with 70% alcohol, followed by subcutaneous injection of test agent with 26 G syringe.
1.4 mL of blood sample (0.7 mL of serum) was collected after measurement of weight (Day 0). Next day (1 Day), 1.4 mL of blood sample (0.7 mL of serum) was collected twice after injection of test agent (4 hrs and 8 hrs after administration of test agent). […]
A CLIA (Chemi-Luminescence Immune Assay) Kit was used to analyze Testosterone, Estradiol E2, FSH (Follicle stimulating hormone), and LH (Luteinizing hormone). […]
Estradiol E2 was analyzed using the samples prepared from example 2. […] As mentioned in example 2, CLIA (Chemi-luminescence immune assay) Kit was used, following the manufacture's protocol. […]

The text below walks through data of patent publication US10561703B2, “Method of modulating sex hormone levels using a sex hormone secretion modulator” (GEMVAX & KAEL CO., LTD., priority 2013, dated 2020).

In the case of “EARPALLTSRLRFIPK (listed as Homo sapiens) [PEP-1, hormone secretion modulator / GnRH analog]”, the “Estradiol E2 level” value fell in the range of 16 to 30 pg/mL (female group, Day 1, all groups (PEP-1 and/or vehicle), baseline 20-50 pg/mL) and 15 to 20 pg/mL (male rat, initial level remained same until Day 7). In addition, the “Effect on Estradiol E2 level” value runs as follows: (female group, level recovered from Day 3-4) “inhibited the Estradiol E2 level in the beginning”; (male rat) “does not have effect on Estradiol E2 level”.
